Source: PubChem BioAssay (NCI)
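Assay format: 96-well plates, 48-hour exposure. At the TGI there is no net growth.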

Legend:
Assay in all cases: NCI tumour cell line growth inhibition, 48 h
U251 CNS = system: U251 CNS
ACHN renal = system: ACHN renal
HT29 colon = system: HT29 colon
IGROV1 ovarian = system: IGROV1 ovarian
UO-31 renal = system: UO-31 renal
HCT-116 colon = system: HCT-116 colon
SK-MEL-28 melanoma = system: SK-MEL-28 melanoma
SF-295 CNS = system: SF-295 CNS
OVCAR-4 ovarian = system: OVCAR-4 ovarian
SN12C renal = system: SN12C renal
SR leukemia = system: SR leukemia
MOLT-4 leukemia = system: MOLT-4 leukemia
LOX IMVI melanoma = system: LOX IMVI melanoma
COLO 205 colon = system: COLO 205 colon
SNB-75 CNS = system: SNB-75 CNS
SK-OV-3 ovarian = system: SK-OV-3 ovarian
OVCAR-3 ovarian = system: OVCAR-3 ovarian
M14 melanoma = system: M14 melanoma
MDA-MB-435 = system: MDA-MB-435
UACC-257 melanoma = system: UACC-257 melanoma

SMILES	TGI (U251 CNS) [µM]	TGI (ACHN renal) [µM]	TGI (HT29 colon) [µM]	TGI (IGROV1 ovarian) [µM]	TGI (UO-31 renal) [µM]	TGI (HCT-116 colon) [µM]	TGI (SK-MEL-28 melanoma) [µM]	TGI (SF-295 CNS) [µM]	TGI (OVCAR-4 ovarian) [µM]	TGI (SN12C renal) [µM]	TGI (SR leukemia) [µM]	TGI (MOLT-4 leukemia) [µM]	TGI (LOX IMVI melanoma) [µM]	TGI (COLO 205 colon) [µM]	TGI (SNB-75 CNS) [µM]	TGI (SK-OV-3 ovarian) [µM]	TGI (OVCAR-3 ovarian) [µM]	TGI (M14 melanoma) [µM]	TGI (MDA-MB-435) [µM]	TGI (UACC-257 melanoma) [µM]
OCC1COc2cc(Cl)c(Cl)cc2O1 (stereo not drawn)	> 10	> 10	> 10	> 10	> 10	> 10	> 10	> 10	> 10	> 10	> 10	> 10	> 10	> 10	> 10	> 10	> 10	> 10	> 10	–
COc1cc(C2c3cc4c(cc3[C@@H](Nc3cccc(CO)c3)C3COC(=O)[C@H]23)OCO4)cc(OC)c1O (stereo partly drawn)	–	–	5.15	17	10.4	11.6	22.7	5.05	30.4	6.11	–	0.185	3.74	3.72	> 24.7	9.04	13.4	–	–	5.04
O=c1[nH]nc(NCc2ccccc2)c2nnn(Cc3ccccc3)c12	> 100	> 100	> 100	–	> 100	> 100	> 100	> 100	> 100	> 100	> 100	> 100	> 100	> 100	–	–	> 100	> 100	> 100	> 100
C=CCN1/C(=C(\C#N)c2nc3ccccc3[nH]2)Sc2c1nc[nH]c2=O	> 100	> 100	> 100	> 100	> 100	> 100	> 100	> 100	> 100	> 100	> 100	> 100	–	> 100	> 100	> 100	> 100	> 100	–	> 100
COc1nc2cccc(C(O)c3ccccc3)c2nc1-c1ccccc1 (stereo not drawn)	16.8	72.9	72.4	44.6	68.7	16.2	> 100	17	> 100	25.6	12.4	34.7	22	16.3	> 100	–	20.4	21.2	4.79	26.9
